# Key:
# [1] = Hydrolysis rate (half-life) in buffer, pH 7.4; assay type: physicochemical
# Excerpt: (§1) Hydrolysis Rate (half-life t½)
# (§2) Hydrolysis Rate (half life t½)
# [2] = Lipophilicity compared with constituent drug; assay type: physicochemical; conditions: qualitative comparison
# [3] = Hydrolysis rate (half-life) in human plasma; assay type: in vitro ADME
# Excerpt: as §1, §2
# [4] = Aqueous solubility compared with constituent drugs; assay type: physicochemical; conditions: qualitative comparison with the unlinked drugs
# [5] = not told
# [6] = read-out: Hydrolysis Rate (half life t½) In Human Plasma (converted)
# [7] = read-out: Hydrolysis Rate (half-life t½) In Human Plasma
# [8] = read-out: Hydrolysis Rate (half-life t½) In Buffer, pH7.4 (converted)
Lipophilicity relative to constituent drug [2],"half-life [3, 7]",SMILES,"half-life [3, 6]",Aqueous / water solubility relative to constituent drug(s) [4],"half-life [1, 8]",also measured
more lipophilic than ofloxacin alone,–,CC1COc2c(N3CCN(C)CC3)c(F)cc3c(=O)c(C(=O)OCCOCCOC(=O)Cc4ccccc4Nc4c(Cl)cccc4Cl)cn1c23 (stereo not shown) [Diclofenac-Ofloxacin],6.5 h,–,–,"Hydrolysis Rate (half life t½) In Buffer, pH7.4 ([1]; given in words, no number): days"
more lipophilic than the ionized form,0.167 h,O=C(Cc1ccccc1Nc1c(Cl)cccc1Cl)OCCOCCOCCOCCO [Diclofenac-PEG4],–,higher water solubility than unionized diclofenac,–,"half-life ([1]; read-out: Hydrolysis Rate (half life t½) In Buffer, pH7.4 (converted)): 168 h"
–,–,O=C(O)Cc1ccccc1Nc1c(Cl)cccc1Cl.O=C(O)c1cn(C2CC2)c2cc(N3CCNCC3)c(F)cc2c1=O [diclofenac-ciprofloxacin codrug],–,–,–,Permeation [5]: enhanced permeation
–,0.1 h,O=C(Cc1ccccc1Nc1c(Cl)cccc1Cl)OCc1oc(=O)oc1COC(=O)Cc1ccccc1Nc1c(Cl)cccc1Cl [Diclofenac Dimer],–,–,25 h,–
–,–,CC1(C)O[C@@H]2CC3C4C[C@H](F)C5=CC(=O)C=CC5(C)[C@@]4(F)CCC3(C)[C@]2(C(=O)COC(=O)Cc2ccccc2Nc2c(Cl)cccc2Cl)O1 (stereo partly shown) [Diclofenac-Fluocinolone Acetonide],168 h,lower solubility under aqueous conditions than either of the constituent drugs,15 h,–

# Reference: US20050008695A1, “Compositions and methods for delivering a biologically active agent” (Control Delivery Systems, Inc., priority 2003, published 2005)
